# Species on record: Rattus norvegicus
# Assay: Open TG-GATES - Regimen: Single
# Format: toxicity, organism-based, Sprague-Dawley
# Design: regimen Single, gender Male, age 6 weeks
# Conditions: in vivo, po, 0 mg/kg, route gavage, dose level Control; for APTT / Bas / Eos / Fbg / Hb / Ht / Lym / MCH / MCHC / MCV / Mono / Neu / PT / Plat / RBC / Ret / WBC: tissue Blood; for KIDNEY_L / KIDNEY_R / KIDNEY_TOTAL: tissue Kidney; for LIVER: tissue Liver; for A/G / ALP / ALT / AST / BUN / CRE / Ca / Cl / DBIL / GLC / IP / K / LDH / Na / PL / RALB / TBIL / TC / TG / TP / gamma-GTP: tissue Plasma
compound,measurement,setting,value
COc1ccc(O)c(C(C)(C)C)c1.COc1ccc(O)cc1C(C)(C)C [BUTYLATED HYDROXYANISOLE],TERMINAL_BW,3 h,208.5 g
same,APTT,3 h,13.3 s
same,Bas,3 h,0.2%
same,Eos,3 h,0.7%
same,Fbg,3 h,265.2 mg/dL
same,Hb,3 h,13.1 g/dL
same,Ht,3 h,38.4%
same,Lym,3 h,74%
same,MCH,3 h,21.2 pg
same,MCHC,3 h,34%
same,MCV,3 h,62.4 fL
same,Mono,3 h,3%
same,Neu,3 h,21.1%
same,PT,3 h,11.5 s
same,Plat,3 h,132.5 x10_4/uL
same,RBC,3 h,616.8 x10_4/ul
same,Ret,3 h,7.8%
same,WBC,3 h,93.2 x10_2/uL
same,KIDNEY_L,3 h,0.9 g
same,KIDNEY_R,3 h,0.8 g
same,KIDNEY_TOTAL,3 h,1.7 g
same,LIVER,3 h,9 g
same,A/G,3 h,0.8
same,ALP,3 h,1750 IU/L
same,ALT,3 h,41.4 IU/L
same,AST,3 h,76.4 IU/L
same,BUN,3 h,10.6 mg/dL
same,CRE,3 h,0.2 mg/dL
same,Ca,3 h,11.2 mg/dL
same,Cl,3 h,106.4 meq/L
same,DBIL,3 h,0.03 mg/dL
same,GLC,3 h,171.8 mg/dL
same,IP,3 h,8.9 mg/dL
same,K,3 h,4.4 meq/L
same,LDH,3 h,72.2 IU/L
same,Na,3 h,141 meq/L
same,PL,3 h,153.8 mg/dL
same,RALB,3 h,2.6 g/dL
same,TBIL,3 h,0.076 mg/dL
same,TC,3 h,80.8 mg/dL
same,TG,3 h,84.6 mg/dL
same,TP,3 h,5.6 g/dL
same,gamma-GTP,3 h,1.2 IU/L
same,TERMINAL_BW,6 h,202.6 g
same,APTT,6 h,16.8 s
same,Bas,6 h,0.2%
same,Eos,6 h,0.7%
same,Fbg,6 h,263 mg/dL
same,Hb,6 h,13.3 g/dL
same,Ht,6 h,39%
same,Lym,6 h,75.4%
same,MCH,6 h,21.3 pg
same,MCHC,6 h,34.2%
same,MCV,6 h,62.2 fL
same,Mono,6 h,2%
same,Neu,6 h,20.9%
same,PT,6 h,12.6 s
same,Plat,6 h,145.4 x10_4/uL
same,RBC,6 h,626.6 x10_4/ul
same,Ret,6 h,7.6%
same,WBC,6 h,97.7 x10_2/uL
same,KIDNEY_L,6 h,0.9 g
same,KIDNEY_R,6 h,0.9 g
same,KIDNEY_TOTAL,6 h,1.8 g
same,LIVER,6 h,8.1 g
same,A/G,6 h,0.8
same,ALP,6 h,1507 IU/L
same,ALT,6 h,33.8 IU/L
same,AST,6 h,67.8 IU/L
same,BUN,6 h,7.2 mg/dL
same,CRE,6 h,0.2 mg/dL
same,Ca,6 h,10.9 mg/dL
same,Cl,6 h,109 meq/L
same,DBIL,6 h,0.026 mg/dL
same,GLC,6 h,179 mg/dL
same,IP,6 h,10 mg/dL
same,K,6 h,4.1 meq/L
same,LDH,6 h,54.8 IU/L
same,Na,6 h,142.6 meq/L
same,PL,6 h,127.8 mg/dL
same,RALB,6 h,2.6 g/dL
same,TBIL,6 h,0.074 mg/dL
same,TC,6 h,73.8 mg/dL
same,TG,6 h,58.2 mg/dL
same,TP,6 h,5.7 g/dL
same,gamma-GTP,6 h,1.2 IU/L
same,TERMINAL_BW,9 h,203.6 g
same,APTT,9 h,15.7 s
same,Bas,9 h,0.2%
same,Eos,9 h,0.8%
same,Fbg,9 h,263 mg/dL
same,Hb,9 h,12.9 g/dL
same,Ht,9 h,37.6%
same,Lym,9 h,74.4%
same,MCH,9 h,21.1 pg
same,MCHC,9 h,34.2%
same,MCV,9 h,61.5 fL
same,Mono,9 h,2.8%
same,Neu,9 h,21%
same,PT,9 h,12.8 s
same,Plat,9 h,142.3 x10_4/uL
same,RBC,9 h,612 x10_4/ul
same,Ret,9 h,8.4%
same,WBC,9 h,68.2 x10_2/uL
same,KIDNEY_L,9 h,0.9 g
same,KIDNEY_R,9 h,0.8 g
same,KIDNEY_TOTAL,9 h,1.7 g
same,LIVER,9 h,7.6 g
same,A/G,9 h,0.9
same,ALP,9 h,1620.2 IU/L
same,ALT,9 h,30.8 IU/L
same,AST,9 h,66.6 IU/L
same,BUN,9 h,8.8 mg/dL
same,CRE,9 h,0.2 mg/dL
same,Ca,9 h,10.9 mg/dL
same,Cl,9 h,106.2 meq/L
same,DBIL,9 h,0.022 mg/dL
same,GLC,9 h,177.4 mg/dL
same,IP,9 h,10.2 mg/dL
same,K,9 h,4.1 meq/L
same,LDH,9 h,61.6 IU/L
same,Na,9 h,141.8 meq/L
same,PL,9 h,128.2 mg/dL
same,RALB,9 h,2.6 g/dL
same,TBIL,9 h,0.088 mg/dL
same,TC,9 h,76.8 mg/dL
same,TG,9 h,39.4 mg/dL
same,TP,9 h,5.6 g/dL
same,gamma-GTP,9 h,1.2 IU/L
same,TERMINAL_BW,24 h,217.3 g
same,APTT,24 h,15.1 s
same,Bas,24 h,0.2%
same,Eos,24 h,0.7%
same,Fbg,24 h,275.6 mg/dL
same,Hb,24 h,13 g/dL
same,Ht,24 h,38%
same,Lym,24 h,77%
same,MCH,24 h,20.9 pg
same,MCHC,24 h,34.2%
same,MCV,24 h,61.2 fL
same,Mono,24 h,2.3%
same,Neu,24 h,19.1%
same,PT,24 h,12.2 s
same,Plat,24 h,136.6 x10_4/uL
same,RBC,24 h,620.2 x10_4/ul
same,Ret,24 h,7%
same,WBC,24 h,82.5 x10_2/uL
same,KIDNEY_L,24 h,0.9 g
same,KIDNEY_R,24 h,0.9 g
same,KIDNEY_TOTAL,24 h,1.8 g
same,LIVER,24 h,9.7 g
same,A/G,24 h,0.8
same,ALP,24 h,1843.2 IU/L
same,ALT,24 h,40 IU/L
same,AST,24 h,70.8 IU/L
same,BUN,24 h,14.6 mg/dL
same,CRE,24 h,0.2 mg/dL
same,Ca,24 h,11.2 mg/dL
same,Cl,24 h,106.4 meq/L
same,DBIL,24 h,0.018 mg/dL
same,GLC,24 h,173 mg/dL
same,IP,24 h,7.7 mg/dL
same,K,24 h,4.3 meq/L
same,LDH,24 h,63.2 IU/L
same,Na,24 h,143.6 meq/L
same,PL,24 h,136.6 mg/dL
same,RALB,24 h,2.6 g/dL
same,TBIL,24 h,0.066 mg/dL
same,TC,24 h,77.6 mg/dL
same,TG,24 h,75.8 mg/dL
same,TP,24 h,5.7 g/dL
same,gamma-GTP,24 h,1 IU/L
